Data from patent US20230117034A1, “PYRAZOLOTRIAZINES” (Bayer Aktiengesellschaft, priority 2019, published 2023).

Tests used:
[1] = tested on: MDA-MB-231, human breast cancer cells; test: Proliferation assay MDA-MB-231 (crystal violet, 4 days); format: cell-based; conditions: Homo sapiens, MDA-MB-231, 96 h, MDA-MB-231 cells, median, read-out: Prolif-MDA MB-231, IC50-[mol/l] (median)
In short: (§1)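 Following a 24 h attachment in 10% fetal calf serum medium, cells receive test substance over 0.01-10 µmol/L for 4 days. Dye retained by fixed cells is eluted and read at 595 nm; cell number change is referenced to day-0 and untreated wells.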

[2] = tested on: CAL-120, human breast adenocarcinoma cells; test: Proliferation assay CAL-120 (crystal violet, 4 days); format: cell-based; conditions: Homo sapiens, CAL-120, 96 h, CAL-120 cells, median, read-out: Prolif-CAL-120, IC50-[mol/l] (median)
In short: as §1

## Fc1cccc2[nH]c(CNc3nc(N4CCOCC4)nc4c(C5CC5)cnn34)nc12 [Example 188, 8-cyclopropyl-N-[(4-fluoro-1H-benzimidazol-2-yl)methyl]-2-(morpholin-4-yl)pyrazolo[1,5-a][1,3,5]triazin-4-amine]
[1]
  IC50: 0.0161 µM
[2]
  IC50: 0.0176 µM

## C[C@@H]1CN(c2nc(NCc3nc4c(F)c(F)ccc4[nH]3)n3ncc(C4CC4)c3n2)C[C@H](C)N1 [Example 170, 8-cyclopropyl-N-[(4,5-difluoro-1H-benzimidazol-2-yl)methyl]-2-[(3R,5S)-3,5-dimethylpiperazin-1-yl]pyrazolo[1,5-a][1,3,5]triazin-4-amine]
[1]
  IC50: 0.00225 µM
[2]
  IC50: 0.001 µM

## OC[C@@H]1CCCCN1c1nc(NCc2nc3c(F)cccc3[nH]2)n2ncc(C3CC3)c2n1 [Example 189, [(2S)-1-(8-cyclopropyl-4-{[(4-fluoro-1H-benzimidazol-2-yl)methyl]amino}pyrazolo[1,5-a][1,3,5]triazin-2-yl)piperidin-2-yl]methanol]
[1]
  IC50: 0.0107 µM
[2]
  IC50: 0.00467 µM

## O=C1CN(c2nc(NCc3nc4ccccc4[nH]3)n3ncc(Br)c3n2)CCN1 [Example 167, 4-(4-{[(1H-benzimidazol-2-yl)methyl]amino}-8-bromopyrazolo[1,5-a][1,3,5]triazin-2-yl)piperazin-2-one]
[1]
  IC50: 0.707 µM
[2]
  IC50: 0.0704 µM

## CN(C)C1CCN(c2nc(NCc3nc4ccccc4[nH]3)n3ncc(Br)c3n2)CC1 [Example 201, N-[(1H-benzimidazol-2-yl)methyl]-8-bromo-2-[4-(dimethylamino)piperidin-1-yl]pyrazolo[1,5-a][1,3,5]triazin-4-amine]
[1]
  IC50: 0.29 µM
[2]
  IC50: 0.126 µM

## CN(C)[C@H]1CCN(c2nc(NCc3nc4ccccc4[nH]3)n3ncc(Br)c3n2)C1 [Example 177, N-[(1H-benzimidazol-2-yl)methyl]-8-bromo-2-[(3S)-3-(dimethylamino)pyrrolidin-1-yl]pyrazolo[1,5-a][1,3,5]triazin-4-amine]
[1]
  IC50: 0.332 µM
[2]
  IC50: 0.0688 µM

## CN1CCN(c2nc(NCc3nc4ccccc4[nH]3)n3ncc(-c4ccncc4)c3n2)CC1 [Example 242, N-[(1H-benzimidazol-2-yl)methyl]-2-(4-methylpiperazin-1-yl)-8-(pyridin-4-yl)pyrazolo[1,5-a][1,3,5]triazin-4-amine]
[1]
  IC50: 0.253 µM
[2]
  IC50: 0.857 µM

## CN1CC2CCC(C1)N2c1nc(NCc2nc3ccccc3[nH]2)n2ncc(Br)c2n1 [Example 226, N-(1H-benzimidazol-2-ylmethyl)-8-bromo-2-(3-methyl-3,8-diazabicyclo[3.2.1]octan-8-yl)pyrazolo[1,5-a][1,3,5]triazin-4-amine]
[1]
  IC50: 0.162 µM
[2]
  IC50: 0.116 µM

## CN1CCCC2CN(c3nc(NCc4nc5ccccc5[nH]4)n4ncc(Br)c4n3)CC21 (stereo not shown) [Example 231, N-[(1H-benzimidazol-2-yl)methyl]-8-bromo-2-(1-methyloctahydro-6H-pyrrolo[3,4-b]pyridin-6-yl)pyrazolo[1,5-a][1,3,5]triazin-4-amine]
[1]
  IC50: 0.11 µM
[2]
  IC50: 0.135 µM

## CN(CC(C)(C)O)c1nc(NCc2nc3ccccc3[nH]2)n2ncc(Br)c2n1 [Example 238, 1-[(4-{[(1H-benzimidazol-2-yl)methyl]amino}-8-bromopyrazolo[1,5-a][1,3,5]triazin-2-yl)(methyl)amino]-2-methylpropan-2-ol]
[1]
  IC50: 0.0401 µM
[2]
  IC50: 0.0363 µM

## Cc1ccc2[nH]c(CNc3nc(N4CCOCC4)nc4c(C5CC5)cnn34)nc2c1 [Example 193, 8-cyclopropyl-N-[(5-methyl-1H-benzimidazol-2-yl)methyl]-2-(morpholin-4-yl)pyrazolo[1,5-a][1,3,5]triazin-4-amine]
[1]
  IC50: 0.00664 µM
[2]
  IC50: 0.00506 µM

## CCN(C)c1nc(NCc2nc3ccccc3[nH]2)n2ncc(Br)c2n1 [Example 233, N4-(1H-benzimidazol-2-ylmethyl)-8-bromo-N2-ethyl-N2-methyl-pyrazolo[1,5-a][1,3,5]triazine-2,4-diamine]
[1]
  IC50: 0.145 µM
[2]
  IC50: 0.158 µM

## Brc1cnn2c(NCc3nc4ccccc4[nH]3)nc(N3CC4CCC3CN4)nc12 (stereo not shown) [Example 220, N-(1H-benzimidazol-2-ylmethyl)-8-bromo-2-(2,5-diazabicyclo[2.2.2]octan-2-yl)pyrazolo[1,5-a][1,3,5]triazin-4-amine]
[1]
  IC50: 0.0212 µM
[2]
  IC50: 0.00704 µM

## Brc1cnn2c(NCc3nc4ccccc4[nH]3)nc(N3CCNC4(CC4)C3)nc12 [Example 176, N-[(1H-benzimidazol-2-yl)methyl]-8-bromo-2-(4,7-diazaspiro[2.5]octan-7-yl)pyrazolo[1,5-a][1,3,5]triazin-4-amine]
[1]
  IC50: 0.0146 µM
[2]
  IC50: 0.00437 µM

## COC(C)(C)CNc1nc(NCc2nc3ccccc3[nH]2)n2ncc(Br)c2n1 [Example 236, N4-(1H-benzimidazol-2-ylmethyl)-8-bromo-N2-(2-methoxy-2-methyl-propyl)pyrazolo[1,5-a][1,3,5]triazine-2,4-diamine]
[1]
  IC50: 0.0905 µM
[2]
  IC50: 0.0974 µM

## CN1CC[C@H]2CN(c3nc(NCc4nc5ccccc5[nH]4)n4ncc(Br)c4n3)C[C@H]21 [Example 179, N-[(1H-benzimidazol-2-yl)methyl]-8-bromo-2-[(3aS,6aS)-1-methylhexahydropyrrolo[3,4-b]pyrrol-5 (1H)-yl]pyrazolo[1,5-a][1,3,5]triazin-4-amine]
[1]
  IC50: 0.0748 µM
[2]
  IC50: 0.0167 µM

## CN1C[C@@H]2C[C@H]1CN2c1nc(NCc2nc3ccccc3[nH]2)n2ncc(Br)c2n1 [Example 219, N-[(1H-benzimidazol-2-yl)methyl]-8-bromo-2-[(1S,4S)-5-methyl-2,5-diazabicyclo[2.2.1]heptan-2-yl]pyrazolo[1,5-a][1,3,5]triazin-4-amine]
[1]
  IC50: 0.0503 µM
[2]
  IC50: 0.0272 µM

## COc1cccc2[nH]c(CNc3nc(N4CCNCC4)nc4c(C5CC5)cnn34)nc12 [Example 211, 8-cyclopropyl-N-[(4-methoxy-1H-benzimidazol-2-yl)methyl]-2-(piperazin-1-yl)pyrazolo[1,5-a][1,3,5]triazin-4-amine]
[1]
  IC50: 0.00703 µM
[2]
  IC50: 0.00229 µM

## CO[C@@H]1CCN(c2nc(NCc3nc4ccccc4[nH]3)n3ncc(Br)c3n2)C1 [Example 223, N-[(1H-benzimidazol-2-yl)methyl]-8-bromo-2-[(3R)-3-methoxypyrrolidin-1-yl]pyrazolo[1,5-a][1,3,5]triazin-4-amine]
[1]
  IC50: 0.349 µM
[2]
  IC50: 0.27 µM

## Cc1ccc2[nH]c(CNc3nc(N4C[C@@H](C)N[C@@H](C)C4)nc4c(C5CC5)cnn34)nc2c1 [Example 194, 8-cyclopropyl-2-[(3R,5S)-3,5-dimethylpiperazin-1-yl]-N-[(5-methyl-1H-benzimidazol-2-yl)methyl]pyrazolo[1,5-a][1,3,5]triazin-4-amine]
[1]
  IC50: 0.00169 µM
[2]
  IC50: 0.00116 µM

## Fc1ccc2[nH]c(CNc3nc(N4C[C@@H]5CCCN[C@@H]5C4)nc4c(C5CC5)cnn34)nc2c1 [Example 180, 8-cyclopropyl-N-[(5-fluoro-1H-benzimidazol-2-yl)methyl]-2-[(4aS, 7aS)-octahydro-6H-pyrrolo[3,4-b]pyridin-6-yl]pyrazolo[1,5-a][1,3,5]triazin-4-amine]
[1]
  IC50: 0.0139 µM
[2]
  IC50: 0.00127 µM

## Cc1ccc2[nH]c(CNc3nc(N4C[C@@H]5CCCN[C@@H]5C4)nc4c(C5CC5)cnn34)nc2c1 [Example 195, 8-cyclopropyl-N-[(5-methyl-1H-benzimidazol-2-yl)methyl]-2-[(4aS,7aS)-octahydro-6H-pyrrolo[3,4-b]pyridin-6-yl]pyrazolo[1,5-a][1,3,5]triazin-4-amine]
[1]
  IC50: 0.0048 µM
[2]
  IC50: 0.00446 µM

## COCCNc1nc(NCc2nc3ccccc3[nH]2)n2ncc(Br)c2n1 [Example 230, N4-(1H-benzimidazol-2-ylmethyl)-8-bromo-N2-(2-methoxyethyl)pyrazolo[1,5-a][1,3,5]triazine-2,4-diamine]
[1]
  IC50: 0.261 µM
[2]
  IC50: 0.313 µM

## CN(C)[C@@H]1CCN(c2nc(NCc3nc4ccccc4[nH]3)n3ncc(Br)c3n2)C1 [Example 178, N-[(1H-benzimidazol-2-yl)methyl]-8-bromo-2-[(3R)-3-(dimethylamino)pyrrolidin-1-yl]pyrazolo[1,5-a][1,3,5]triazin-4-amine]
[1]
  IC50: 0.501 µM
[2]
  IC50: 0.0968 µM

## CC1(C)CN(c2nc(NCc3nc4ccccc4[nH]3)n3ncc(Br)c3n2)CCN1 [Example 216, N-[(1H-benzimidazol-2-yl)methyl]-8-bromo-2-(3,3-dimethylpiperazin-1-yl)pyrazolo[1,5-a][1,3,5]triazin-4-amine]
[1]
  IC50: 0.0168 µM
[2]
  IC50: 0.00855 µM

## Fc1cccc2[nH]c(CNc3nc(N4C[C@@H]5CCCN[C@@H]5C4)nc4c(C5CC5)cnn34)nc12 [Example 187, 8-cyclopropyl-N-[(4-fluoro-1H-benzimidazol-2-yl)methyl]-2-[(4aS,7aS)-octahydro-6H-pyrrolo[3,4-b]pyridin-6-yl]pyrazolo[1,5-a][1,3,5]triazin-4-amine]
[1]
  IC50: 0.0138 µM
[2]
  IC50: 0.0011 µM

## OC1CCN(c2nc(NCc3nc4ccccc4[nH]3)n3ncc(Br)c3n2)CC1 [Example 17, 1-(4-{[(1H-benzimidazol-2-yl)methyl]amino}-8-bromopyrazolo[1,5-a][1,3,5]triazin-2-yl)piperidin-4-ol]
[1]
  IC50: 0.107 µM

## C[C@@H]1CN(c2nc(NCc3nc4ccccc4[nH]3)n3ncc(Br)c3n2)CCN1 [Example 168, N-[(1H-benzimidazol-2-yl)methyl]-8-bromo-2-[(3R)-3-methylpiperazin-1-yl]pyrazolo[1,5-a][1,3,5]triazin-4-amine]
[2]
  IC50: 0.00325 µM

## Cc1cc(-c2cnn3c(NCc4nc5ccccc5[nH]4)nc(N4CCN(C)CC4)nc23)ccn1 [Example 243, N-[(1H-benzimidazol-2-yl)methyl]-2-(4-methylpiperazin-1-yl)-8-(2-methylpyridin-4-yl)pyrazolo[1,5-a][1,3,5]triazin-4-amine]
[2]
  IC50: 3.67 µM
